Source: patent US20120232142A1, “NOVEL USE OF DIMETHYLFUMARATE” (KYUNGPOOK NATIONAL UNIVERSITY INDUSTRY ACADEMIC COOPERATION …, priority 2007, published 2012)
Counter-ions that a name gives are not always drawn.

Columns and labels:
[1] = test system: vascular smooth muscle cells; assay: Cell cycle analysis by FACS (PI staining) of vascular smooth muscle cells; type: cell-based, Sprague-Dawley rat; conditions: 5 μM pretreated 2 hours; growth factor and insulin 24 hours; stimulated without drug 8.7%
Procedure: For culturing vascular smooth muscle cells, vascular smooth muscle cells were isolated from the aorta of Sprague-Dawley rat and were first cultured. Vascular smooth muscle cells were cultured in a culturing apparatus having conditions of 37° C., 5% carbon dioxide until cells are grown up in culture medium containing 20% bovine fetal serum. Cells obtained from the procedure were transferred to a fresh culture dish to culture, and the initial cells subcultured up to 4 to 7 times were used in experiments. Vascular smooth muscle cells were analyzed for cell cycle employing FACS in order to confirm the effect of dimethyl fumarate on cell cycle. 5 μM dimethyl fumarate were pretreated for 2 hours in the vascular smooth muscle cells cultured in a medium containing 0.5% bovine fetal serum for 24 hours. Cells were treated with a growth factor and insulin to induce cells into replication phase, and reaction was performed for 24 hours. Then cells were collected and immobilized, and then their nucleuses were stained with propidium iodide (PI), and cell cycle was analyzed by employing FACS. Cell cycle was indicated as % by measuring 10,000 cells per each sample.

AMPK = assay: Western blot of AMPK and ACC phosphorylation in vascular smooth muscle cells; type: cell-based, Sprague-Dawley rat; conditions: 5 μM; 1, 2, 3, 6, 12 hours
Procedure: (§1) For culturing vascular smooth muscle cells, vascular smooth muscle cells were isolated from the aorta of Sprague-Dawley rat and were first cultured. Vascular smooth muscle cells were cultured in a culturing apparatus having conditions of 37° C., 5% carbon dioxide until cells are grown up in culture medium containing 20% bovine fetal serum. Cells obtained from the procedure were transferred to a fresh culture dish to culture, and the initial cells subcultured up to 4 to 7 times were used in experiments.
(§2) First cultured vascular smooth muscle cells were filled in about 80 to 90% of 60 mm tissue culture dish, and the cells were stood in a medium containing 0.5% FBS for 24 hours to render the cells to be interphase status. […]
(§3) Whole proteins were separated from vascular smooth muscle cells of each group by employing RIPA buffer solution (50 mM Tris-HCl, 150 mM NaCl, 5 mM EDTA, 1% NP-40, 1 mM PMSF, 1 mM DTT, 1 mg/ml protease inhibitor). Separated proteins of each sample were quantitatively analyzed, 25 mg of proteins were mixed with sample buffer solution, the mixture was boiled for 5 minutes and then cooled, electrophoresis was performed for the resulting product in sodium dodecyl sulfate polyacrylamide gel to separate depending on size, then the product was transferred to a PVDF membrane, and then reacted with pAMPK or pACC antibody to confirm phosphorylation thereof. […]

pRb and CDK = assay: Western blot of Rb phosphorylation and CDK expression in vascular smooth muscle cells with PDGF; type: cell-based, Sprague-Dawley rat
Procedure: as §1
First cultured vascular smooth muscle cells were filled in about 80 to 90% of 60 mm tissue culture dish, and the cells were stood in a medium containing 0.5% FBS for 24 hours to render the cells to be interphase status. The group not treated with dimethyl fumarate was defined as a control, and experimental groups were divided into 3 groups treated with 5 μM dimethyl fumarate for 6, 12 and 24 hours, respectively, with or without PDGF. […] Separated proteins of each sample were quantitatively analyzed, 25 μg of proteins were mixed with sample buffer solution, the mixture was boiled for 5 minutes and then cooled, electrophoresis was performed for the resulting product in sodium dodecyl sulfate polyacrylamide gel to separate depending on size, then the product was transferred to a PVDF membrane, and then reacted with an antibody against pRb or Cyclin. […]

[2] = test system: vascular smooth muscle cells; assay: Inhibition of PDGF-induced vascular smooth muscle cell proliferation (WST cell counting); type: cell-based, Sprague-Dawley rat; conditions: 1, 2, 5, 10 μM; PDGF 20 ng/ml; 48 hours; OD 450 nm
Procedure: For culturing vascular smooth muscle cells, vascular smooth muscle cells were isolated from the aorta of Sprague-Dawley rat and were first cultured. Vascular smooth muscle cells were cultured in a culturing apparatus having conditions of 37° C., 5% carbon dioxide until cells are grown up in culture medium containing 20% bovine fetal serum. Cells obtained from the procedure were transferred to a fresh culture dish to culture, and the initial cells subcultured up to 4 to 7 times were used in experiments. First cultured vascular smooth muscle cells were cultured in 96-well culture dish, and when growth reached 70%, they were transferred to a medium containing 0.5% bovine fetal serum, and then cultured for 24 hours and the cells was stood at interphase status. […] The number of viable cells was measured employing WST cell counting kit (WAKO, Japan). A reagent for confirming cell proliferation was treated thereto, reaction was further performed for 4 hours, and then optical density was measured at 450 nm with ELISA reader to investigate the ability of proliferating cells. The results of the experiments were shown by taking an average from values measured in more than three separate experiments.

neointima = assay: Neointima formation after balloon dilation in rats fed high fat diet (H & E staining); type: in vivo, Sprague-Dawley rats; conditions: 4 weeks
Procedure: In order to confirm whether dimethyl fumarate inhibits the formation of neointima after balloon dilation, experiments were performed with Sprague-Dawley rats fed with food containing dimethyl fumarate. The rats were bred while maintaining conditions that the temperature of the breeding room was maintained at 22±2° C., and brightness was automatically controlled in 12 hour cycles. Rats were categorized into a normal control group, a negative control group fed with only high fat diet (20% fat, 0.05% cholesterol), and an experiment group fed with food containing 0.5% or 1% dimethyl fumarate together with high fat diet (4 rats per each group), and experiments were progressed while breeding for 4 weeks in separate cages containing one rat per cage. Balloon dilation was performed after breeding rats for 2 weeks before the balloon dilation, and breeding was performed for 2 weeks more while continuing on feeding general diet and dimethyl fumarate diet, and then their aorta were separated and the formation of neointima was confirmed with H & E (hematoxylin and eosin) staining method.

p53 and p21 = assay: Western blot of p53 and p21 expression in vascular smooth muscle cells; type: cell-based, Sprague-Dawley rat; conditions: 5 μM; 1, 2, 3, 6, 12 hours
Procedure: as §1, §2
as §3, with “mM Tris HCl,” for “mM Tris-HCl,”, “25 μg” for “25 mg”, “with p53” for “with pAMPK”, “or p21” for “or pACC”, “confirm the expression” for “confirm phosphorylation”

With `COC(=O)/C=C/C(=O)OC` [dimethyl fumarate] the “cells in replication phase status” value [1] was 3.4%, the “activity (phosphorylation) of AMPK” value (AMPK) was “initially increased” and the “phosphorylation of ACC” value (AMPK) was “continuously increased”. For the same molecule, the “expression of CDK” value (pRb and CDK; 5 μM pretreated 2 hours, then PDGF) was “more inhibited”, the “phosphorylation of Rb promoted by a growth factor or CDK” value (pRb and CDK; 5 μM, 6, 12 and 24 hours, with or without PDGF) was “inhibits” and the “cell proliferation increased by platelet derived growth factor” value [2] was “inhibited as the concentration of dimethyl fumarate was increased”. The “formation of neointima after balloon dilation” value (neointima; food containing 0.5% dimethyl fumarate with high fat diet) was “certainly decreased”, the “formation of neointima after balloon dilation” value (neointima; food containing 1% dimethyl fumarate with high fat diet) was “certainly decreased” and the “expression of p21” value (p53 and p21) was “increased”. The “expression of p53” value (p53 and p21) was “increased”.
